In the NIST ThermoML archive (doi:10.1021/je3009073):
± gives the expanded uncertainty stated by the source.

What was measured:
[1] = xn = mol fraction of the nth substance listed; settings: 101 kPa, Liquid, x1 = 1; for viscosity: Capillary tube (Ostwald / Ubbelohde) method; for mass density: Pycnometric method
[2] = 101.33 kPa, Liquid; for viscosity: Capillary tube (Ostwald / Ubbelohde) method; for mass density: Pycnometric method

Row | viscosity ([1]; 303.15 K) [mPa·s] | viscosity ([1]; 308.15 K) [mPa·s] | viscosity ([1]; 313.15 K) [mPa·s] | viscosity ([1]; 318.15 K) [mPa·s] | viscosity ([1]; 323.15 K) [mPa·s] | mass density ([1]; 323.15 K) [kg/m3] | viscosity ([1]; 328.15 K) [mPa·s] | mass density ([1]; 328.15 K) [kg/m3] | viscosity ([2]; 303.15 K) [mPa·s] | mass density ([2]; 303.15 K) [kg/m3] | viscosity ([2]; 308.15 K) [mPa·s] | mass density ([2]; 308.15 K) [kg/m3] | viscosity ([2]; 313.15 K) [mPa·s] | mass density ([2]; 313.15 K) [kg/m3] | viscosity ([2]; 318.15 K) [mPa·s] | mass density ([2]; 318.15 K) [kg/m3] | viscosity ([2]; 323.15 K) [mPa·s] | mass density ([2]; 323.15 K) [kg/m3] | viscosity ([2]; 328.15 K) [mPa·s] | mass density ([2]; 328.15 K) [kg/m3] | Structure (SMILES)
1 | 0.8 ± 0.03 | 0.72 ± 0.03 | 0.65 ± 0.03 | 0.6 ± 0.1 | 0.55 ± 0.02 | 988 ± 2 | 0.5 ± 0.02 | 985.7 ± 2 | – | – | – | – | – | – | – | – | – | – | – | – | O [water] + CC(O)C(=O)[O-].CN(C)C(N)=[N+](C)C
2 | – | – | – | – | – | – | – | – | 14.55 ± 0.61 | 1007.9 ± 2 | 11.86 ± 0.5 | 1004.2 ± 2 | 9.65 ± 0.41 | 1000.5 ± 2.1 | 7.91 ± 0.33 | 996.2 ± 2.1 | 6.72 ± 0.28 | 992.7 ± 2.1 | 5.74 ± 0.24 | 988.7 ± 2.1 | NCCO [2-aminoethan-1-ol]
3 | 0.8 ± 0.03 | 0.72 ± 0.03 | 0.65 ± 0.03 | 0.6 ± 0.02 | 0.55 ± 0.02 | 988 ± 2 | 0.5 ± 0.02 | 985.7 ± 2 | – | – | – | – | – | – | – | – | – | – | – | – | O [water] + CC(O)C(=O)[O-].[NH3+]CCO
